This note sets out measurements from US6740680B1, “Pharmaceutical compositions to tetrac and methods of use thereof” (Becton Pharma, Inc., priority 1999, dated 2004).

Where two headings read alike, the source gives them in different places.

Data set [1] has as its system Cynomologus monkeys. On the procedure: Preparation of Tetrac for injection. Tetrac from Rhône-Poulenc and Henning Laboratory were compared. Tetrac powder was dissolved in sterile 0.1 N NaOH at 2 mg/ml. This solution was made before the beginning of each treatment period and stored at 4° C. in polypropylene tubes, protected from light. Each solution for injection was prepared daily after dilution in the vehicle (0.9% NaCl) containing 5% monkey serum (v/v), and was stored at room temperature and protected from light, according to the storage conditions of the test substance.
Animals. One male and one female purpose bred Cynomologus monkeys Macaca fascicularis were supplied by Centre de Recherches Primatologiques, Port Louis, Mauritius. […] The animals were individually housed in stainless steel cages and a metallic tray was placed under each cage in order to collect urine. The animals were fed daily with approximately 200 grams each of U.A.R. 107 C pelleted diet (batch Nos. 61106, 61207 and 70317, U.A.R., Villemoisson-sur-Orge, France), distributed about 2 hours after treatment with Tetrac. No contaminants were known to have been present in the diet, drinking water or bedding material at levels which may be expected to have interfered with or prejudiced the outcome of the study.
Weeks 1 to 3 and weeks 7 to 9: the animals received the test substance TETRAC provided either by Rhone-Poulenc or by Henning Laboratories over a three-week period.
Weeks 4 to 6 and weeks 10 to 12: a washout period of three weeks was observed.
Administration of Tetrac. Tetrac was administered via intramuscular injection into the thigh muscle once a day, at approximately the same time each day, several days a week over a three week period. The quantity of tetrac administered to each animal was adjusted according to the most recently recorded body weight. A constant dosage-volume of 0.5 ml/kg was used.
Morbidity and mortality. The animals were checked at least twice a day, for mortality and signs of morbidity.
Body weight. Body weight was recorded for each animal once before the beginning of the treatment period, on the first day of the treatment period, and at least once a week until the end of the study.
Food consumption. Food consumption was estimated for each animal by calculating the difference between the quantity given and that remaining the next morning. This was estimated daily during the week before treatment and throughout the study. Food consumption was expressed as a percentage of the quantity given. Whenever fasting was required, the food was removed at the end of the day and the estimation of consumption was made at that time, food being made available for approximately five hours on that day.

Data set [2] in a line: Serum T3, T4, Triac and Tetrac levels in infused rats. The class given is in vivo. The settings on record: male, SIVZ, rat, intraperitoneal, mean ± SEM, read-out: Serum Tetrac. On the procedure: Seventy-nine male SIVZ rats were purchased from the breeder (Institut für Labortierkunde des Universität Zürich, Zürich, Switzerland). They were rendered hypothyroid by a single injection of [^131I]Na (100 μCi/rat) and before and throughout the experiment 0.02% 2-mercapto-1-methylimidazol (MMI) was added to drinking water. In order to have an euthyroid control group of similar weight and identical age, 10 rats received only MMI in the drinking water and 2 weeks before implanting the minipumps, MMI was withdrawn. Osmotic minipumps (secretion rate 0.25 μl/hour, duration 14 days) were implanted intraperitoneally (i.p.) 2 months after the injection of [^131I]Na. The minipumps were filled with T4 or Tetrac dissolved in 0.05 N NaOH, 2% BSA and 100,000 cpm [^125I]T4 or [^125I]Tetrac as control of their secretion rates. The infusion lasted 13 days. 0, 1.5, 4.5, 13.5 and 40.5 nmol Tetrac/day/100 g or 0.5, 1.5, 4.5 and 13.5 nmol T4/day/100 g bodyweight (BW) (n=4/dose) were infused. An euthyroid control group was included. The animals were weighed every 2 days. Rats were sacrificed by decapitation and blood was collected and stored at […] until use. Tissues (liver, heart, brown adipose tissue, cerebral cortex and pituitary) were removed rapidly, frozen in liquid nitrogen and stored at […] until use.
Hornone assays. Total serum T4, T3, Tetrac, Triac and TSH levels (intra-assay coefficient of variation 7 to 10%, inter-assay coefficient of variation 12 to 15%) were measured using the method of Burger, A., Sakoloff, C., Staeheli, V., Vallotton, M. D., and Ingbar, S. H. Acta. Endocrinol. (Copenh.) 80: 58-69 (1975). Serum TSH measurements were performed with reagents kindly provided by the National Pituitary Program, NIAMDD, NIH (Bethesda, USA). The detection limits were 0.80 ng TSH/ml; 9.5 pmol T4/ml; 0.16 pmol T3/ml; 10 pmol Tetrac/ml and 0.52 pmol Triac/ml.

As for `O=C(O)Cc1cc(I)c(Oc2cc(I)c(O)c(I)c2)c(I)c1` [Tetrac, 3,3′,5,5′-tetraiodothyroacetic acid], the Clinical signs entry in data set [1] (75 μg/kg/day intramuscular, treatment or washout periods) is recorded as “No clinical signs were observed”. Also, in data set [1] (Female, two treatment periods compared to washout periods), the “Body weight gain (in words)” value is “slightly higher body weight gain”. Moreover, in data set [1] (Male), the “Food consumption (in words)” value is “unaffected”. The concentration at 13 days turned out to be 168 ± 16 nM in data set [2] (Tetrac infusion 1.5 nmol/day/100 g BW), 332 ± 19 nM in data set [2] (Tetrac infusion 4.5 nmol/day/100 g BW), 458 ± 27 nM in data set [2] (Tetrac infusion 13.5 nmol/day/100 g BW) and 406 ± 57 nM in data set [2] (Tetrac infusion 40.5 nmol/day/100 g BW).
